Measurements taken from patent US8399493B2, “Pyridinone derivatives and their use as positive allosteric modulators of mGluR2-receptors” (Janssen Pharmaceuticals, Inc., priority 2004, dated 2013).

Assays:
[1] = molecular target: T1, native rat mGluR2 (Rattus norvegicus, UniProt P31421); assay: [35S]GTPγS binding assay using cortical rat brain membranes; format: biochemical; conditions: for Activity: left-ward shift of agonist mGluR2 concentration-response curve: selective mGluR2 agonist such as LY379268, rat cortical membranes, 3 or 10 μM of positive allosteric modulator
T1 construct: from tissue; host or cells: rat brain cortex membranes (Sprague-Dawley rats, Charles River Laboratories)
Text: The [^35S]GTPγS binding is a functional membrane-based assay used to study G-protein coupled receptor (GPCR) function. This method is using a binding assay to assess the initial step in receptor-mediated G protein activation in membranes prepared from cells expressing recombinant GPCR or using membranes from discrete area of the rat brain. In brief, the assay is measuring the activation of G proteins by catalyzing the exchange of guanosine 5′-diphosphate (GDP) by guanosine 5′-triphosphate (GTP) at the α subunit. The GTP-bounded G proteins dissociate into two subunits, Gα-GTP and Gβγ, which in turn regulate intracellular enzymes and ion channels. GTP is rapidly hydrolysed by the Gα-subunit (GTPases) and the G protein is deactivated and ready for new GTP exchange cycle (Harper (1998) Curr Protoc Pharmacol 2.6.1-10, John Wiley & Sons, Inc.). [^35S]GTPγS, a non-hydrolyzed analogue of GTP, is used for this purpose.
This method is widely used to study receptor activation of G protein in membranes prepared from rat brain tissue, including mGluR2 receptors (Schaffhauser et al 2003, Pinkerton et al, 2004). mGluR2 receptors are expressed in the rat brain cortex (Mutel et al (1998) J. Neurochem. 71:2558-64; Schaffhauser et al (1998) Mol. Pharmacol. 53:228-33) and are coupled to Gαi-protein, a preferential coupling for this method.
[^35S]GTPγS binding assay using cortical rat brain membranes preparation was used and adapted from Schaffhauser et al ((2003) Mol. Pharmacol. 4:798-810) for the detection of the positive allosteric modulator properties of the compounds of this invention on native rat mGluR2. In order to eliminate the possible interference with group III Gαi-protein coupled mGluRs (mGluR4, mGluR7, mGluR8; mGluR6 is not expressed in the cortex (Laurie et al (1997) Neuropharmacol. 36:145-52)), the potentiation of the response to a selective mGluR2 agonist, such as DCG-IV (Cartmell et al. (1998) Br. J. Pharmacol. 123(3):497-504) or LY379268 (Monn et al. (1999) J. Med. Chem 42:1027-40), by compounds described in the present invention was performed.
Cortices were dissected out from brains of 200-300 g Sprague-Dawley rats (Charles River Laboratories, L'Arbresle, France). Tissues were homogenized in 6 volumes (vol/wt) of 10% sucrose at 4° C. using a glass-teflon homogenizer. The homogenate was centrifuged at 1250 g for 10 min, and the supernatant was centrifuged at 40,000 g for 20 min (4° C.). The pellet was resuspended in 25 ml water using a Polytron disrupter (Kinematica AG, Luzern, Switzerland) and centrifuged for 10 min at 3000 g. (4° C.). The supernatant was centrifuged at 40,000 g for 20 min (4° C.). The supernatant was discarded and the pellet washed twice by resuspension in 10 volumes 5 mM HEPES-KOH, pH 7.4. The homogenate was frozen and thawed twice and centrifuged at 40,000 g for 20 min. The final pellet was resuspended in 5 mM HEPES-KOH, pH 7.4 and stored at −80° C. before its use. Protein concentration was determined by the Bradford method (Bio-Rad protein assay, Reinach, Switzerland) with bovine serum albumin as standard.
Measurement of mGluR2 positive allosteric modulators properties in rat cortical membranes was performed as follows: rat cortical membrane (1.5 μg) were incubated in 96-well microplates for 15 min at 30° C. in assay buffer (50 mM HEPES pH 7.4, 100 mM NaCl, 5 mM MgCl2, 10 μM GDP, 10 μg/ml saponin, EGTA 0.2 mM) with increasing concentrations of positive allosteric modulator (from 1 nM to 10 μM) and a minimal concentration of DCG-IV or LY379268, a selective mGluR2 agonist, that has been determined in previous experiments and that corresponds to the EC20, a concentration that gives 20% of the maximal response of the agonist, and is in accordance to published data (Pin et al. (1999) Eur. J. Pharmacol. 375:277-294). […]

[2] = tested on: Male C57BL6/j mice; assay: PCP-induced locomotor activity in mice (phencyclidine model of schizophrenia); format: in vivo; conditions: 200 mg/kg i.p., PCP 5 mg/kg s.c., distance traveled over 60 minutes, FIG. 2
Text: PCP-induced increases in locomotor ambulation are a widely accepted animal model of schizophrenia. This model is based on the evidence that phencyclidine induces a schizophrenia-like syndrome in humans including increased motor behaviors, disruption of cognition and impairment of working memory (Steinpreis R E (1996) Behav Br Res. 74:45-55; Abi-Saab et al. (1998) Pharmacopsychiatry, 31:104-109). Further, it has also been shown that antipsychotic drugs that are effective in the treatment of schizophrenia reduce the locomotor activating effect of PCP (Gleason & Shannon (1997) Psychopharmacology, 129:79-84). […]
(§1) The effects of compounds on PCP- or amphetamine-induced locomotor activation in mice were tested. […] Locomotor activity (ambulations) was monitored by a videotracking system (VideoTrack, Viewpoint, Champagne au Mont d'Or, France) that recorded the ambulatory movements of mice. […] On test days, test compounds (200 mg/kg i.p. (intraperitoneal)) or vehicle were administered immediately before the PCP (5 mg/kg s.c. (sub-cutaneous), amphetamine (3.0 mg/kg s.c.) or saline injection. Mice were placed into the locomotor boxes immediately after the PCP, amphetamine or saline vehicle injection and their locomotor activity, defined as the distance traveled in centimeters (cm), was measured for 60 minutes. […]

[3] = tested on: Male C57BL6/j mice; assay: Amphetamine-induced locomotor activity in mice (amphetamine model of schizophrenia); format: in vivo; conditions: 200 mg/kg i.p., amphetamine 3.0 mg/kg s.c., distance traveled over 60 minutes, FIG. 3
Text: Amphetamine-induced increases in locomotor ambulation are well known and are widely used as a model of the positive symptoms of schizophrenia. This model is based on evidence that amphetamine increases motor behaviors and can induce a psychotic state in humans (Yui et al. (2000) Ann NY Acad Sci 914:1-12). Further, it is well known that amphetamine-induced increases in locomotor activity are blocked by antipsychotics drugs that are effective in the treatment of schizophrenia (Arnt (1995) Eur J Pharmacol 283:55-62). […]
as §1
Statistical analyses were performed using GraphPad PRISM statistical software (GraphPad, San Diego, Calif., USA). Data were analyzed using unpaired t-tests. […]

T1 sequence (P31421 19-872): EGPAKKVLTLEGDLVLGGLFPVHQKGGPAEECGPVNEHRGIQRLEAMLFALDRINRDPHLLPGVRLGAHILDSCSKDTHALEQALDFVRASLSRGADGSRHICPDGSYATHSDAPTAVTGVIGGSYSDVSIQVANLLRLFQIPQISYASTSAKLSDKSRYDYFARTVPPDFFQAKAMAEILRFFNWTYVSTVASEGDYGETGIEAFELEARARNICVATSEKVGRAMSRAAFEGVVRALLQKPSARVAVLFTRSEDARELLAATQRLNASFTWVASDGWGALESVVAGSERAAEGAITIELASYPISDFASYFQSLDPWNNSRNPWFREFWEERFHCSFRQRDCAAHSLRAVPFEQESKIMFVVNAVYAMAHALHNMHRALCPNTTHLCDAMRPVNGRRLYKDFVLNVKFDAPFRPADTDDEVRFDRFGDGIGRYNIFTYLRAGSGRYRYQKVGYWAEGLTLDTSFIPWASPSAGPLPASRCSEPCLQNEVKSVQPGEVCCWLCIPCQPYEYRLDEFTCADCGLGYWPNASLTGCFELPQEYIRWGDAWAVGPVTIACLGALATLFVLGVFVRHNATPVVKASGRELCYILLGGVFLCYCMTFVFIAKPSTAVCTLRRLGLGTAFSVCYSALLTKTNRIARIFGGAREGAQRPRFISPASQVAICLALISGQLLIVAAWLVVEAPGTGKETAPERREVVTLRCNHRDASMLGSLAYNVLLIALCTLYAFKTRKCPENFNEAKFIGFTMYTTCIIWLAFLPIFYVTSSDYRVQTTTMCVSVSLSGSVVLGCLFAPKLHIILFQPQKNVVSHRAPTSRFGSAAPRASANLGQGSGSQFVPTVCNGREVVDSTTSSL

SMILES | ability to increase the [GTPγ35S] binding induced by DCG-IV ([1]; 10 μM compound with 50 nM DCG-IV, compared to agonist alone, FIG. 1) | agonistic activity in the absence of DCG-IV ([1]; 10 μM compound without 50 nM DCG-IV, compared to buffer value, FIG. 1) | effect on the increase in locomotor activity induced by PCP [2] | effect on the increase in locomotor activity induced by amphetamine [3] | melting point [°C] | Activity: left-ward shift of agonist mGluR2 concentration-response curve [1]
COc1ccc(-c2ccc(=O)n(Cc3ccc(Cl)cc3F)c2)cc1 [4-16] | significantly potentiated | no statistically significant agonistic activity | significantly attenuated | significantly attenuated | 88 | –
COc1ccc(-c2ccn(Cc3cccc(F)c3)c(=O)c2)cc1 [11-03, 1-(3-Fluorobenzyl)-4-(4-methoxyphenyl)pyridin-2(1H)-one] | – | – | – | – | 114 | + (left-ward shift of agonist mGluR2 concentration-response curve [<2])
COc1ccc(-c2cn(Cc3ccc(Cl)cc3)c(=O)cn2)cc1 [12-06, 1-(4-Chlorobenzyl)-5-(4-methoxyphenyl)pyrazin-2(1H)-one] | – | – | – | – | 133 | + (left-ward shift of agonist mGluR2 concentration-response curve [<2])
O=c1c2ccccc2ccn1Cc1ccc(F)cc1 [13-01, 2-(4-Fluorobenzyl)isoquinolin-1(2H)-one] | – | – | – | – | 107 | ++ (left-ward shift of agonist mGluR2 concentration-response curve [2- to 3.5-fold])
CCCn1ccc2c(NCCc3ccc(O)cc3)cccc2c1=O [13-05, 5-(4-Hydroxyphenethylamino)-2-propylisoquinolin-1(2H)-one] | – | – | – | – | 170 to 171 | +++ (left-ward shift of agonist mGluR2 concentration-response curve [>3.5])
O=c1ccc2ccccc2n1Cc1ccc(Cl)cc1 [15-04, 1-(4-Chlorobenzyl)quinolin-2(1H)-one] | – | – | – | – | 139 | + (left-ward shift of agonist mGluR2 concentration-response curve [<2])
O=c1ccc(COc2ccccc2)cn1Cc1ccc(C(F)(F)F)nc1 [16-07] | – | – | – | – | 119 to 121 | ++ (left-ward shift of agonist mGluR2 concentration-response curve [2- to 3.5-fold])
